In patent publication US12564639B2, “Cationic nanostructures for intra-cartilage delivery of contrast agents and diagnostic uses thereof” (Northeastern University, priority 2019, dated 2026):

Assays:
[1] = Zeta potential (Zetasizer Nano-ZS90); format: physicochemical; conditions: for Zeta potential (ζ): nanopure water, 0.45 mg/mL, Mean ± SD
Excerpt: • 1. Use the procedure in Section F to conjugate 4 moles of biotin-PEG-IOX with Avidin at its biotin binding sites to synthesize mAv-IOX. • 2. Use Zetasizer Nano-ZS90 to detect the zeta potential of unmodified Avidin and mAv-IOX in DI water; the zeta potential (Q, mV) of Avidin and mAv-IOX should be around 18.3±0.5 mV and 8.69±0.7 mV, respectively. • 3. Obtain 3 mm diameter×1 mm height cylindrical cartilage discs with intact superficial zone (SZ) from femoropatellar grooves of 1-2-week-old bovine knee joints and freeze them in PBS containing protease inhibitors (PI) until further use. • 4. […] Use a freezing point osmometer to balance the osmolality of these contrast agent solutions to 400±20 mOsm/kg by adding 1 M sodium chloride solution dropwise. • 5. […] Secure cartilage explants using low X-ray-absorption foam inside a 20.5 mm CT scan tube. Ensure that the cartilage explant stays secured in the foam during CT imaging. • 7. Take one of the equilibrated cartilage explants from contrast agent solution and gently using Kimwipes to remove solution from the tissue surface. • 8. Set CT35 with an isotropic voxel resolution of 10 μm, 70 kVp tube voltage, 113 μA current, and 200 ms integration time method. The CT data will be saved as DICOM format. ImageJ software will automatically display Hounsfield Unit (HU) by importing DICOM images. • 9. Process the CT imaging data acquired from CT35 using ImageJ software: (i) Go to Image→Stacks→Images to Stack to convert CT imaging data to a cartilage stack. (ii) Go to Image→Stacks→Reslice and select ‘starting at top’ to acquire a new stack showing vertical section of cartilage from superficial zone (SZ) to deep zone (DZ). […] The GAG content (mg/mg wet weight) is calculated as: […]
PEGylation of Avidin in 1:2 and 1:4 mAv was further confirmed by using H-Class Acquity UPLC (Waters Corp, Milford, MA) equipped with an Acquity UPLC BEH200 Size Exclusion Column (200 Å, 1.7 μm column, 4.6×300 mm) with 20 mM ammonium bicarbonate buffer as the mobile phase at 0.2 mL/min. Avidin was detected at 280 nm. […]

[2] = Hydrodynamic diameter estimated from molecular weight (Stokes-Einstein equation); format: physicochemical
Excerpt: As such, its intra-cartilage transport diffusivities (estimated using setup in FIG. 3A) were not affected either (Table 1). The hydrodynamic diameter of Avidin and mAv was estimated from their molecular weights using the Stokes-Einstein equation. The net size of mAv was within the 10 nm limit enabling it to penetrate through the full thickness of cartilage similar to unmodified Avidin.

[3] = tested on: IL-1α treated cartilage explants; experiment: IL-1α treated cartilage explant culture OA model: Safranin-O histology; format: cell-based, bovine; conditions: 16 days
Protocol: (§1) 3 mm diameter cartilage explants harvested from calf knee joints were equilibrated separately in serum free culture media containing 96.2% low-glucose DMEM, 1.0% HEPES, 1.0% NEAA, 1.0% PSA, 0.4% proline and 0.4% ascorbic acid for 48 h at 37° C., 5% CO2 for 2 days prior to treatment. Tissue explants for all treatment conditions were matched for depth and location to prevent any bias. To test the biological effectiveness of mAv-Dex, equilibrated cartilage explants were treated with or without IL-1α (2 ng/mL) for 16 days in combination with (i) a single dose of 100 nM free Dex, (ii) a continuous dose of 100 nM free Dex, (iii) a single dose of 10 μM free Dex (iv) a single dose of fast release mAv-Dex (10 μM Dex) or (v) a single dose of controlled release mAv-Dex (2:1:1) (10 μM Dex). To evaluate the effect of mAv carrier alone on cartilage health, a high one-time dose of 10 μM mAv, which is 10× higher than that used to deliver 10 μM Dex in condition (v) above, was also tested in the absence of IL-1α. Note that mAv here refers to 1:4 mAv configuration. Media was changed every 2 days and IL-1α was replenished at each medium change. […] IL-1α concentration was chosen as it represents a moderately aggressive cytokine treatment.
Cartilage explants were fixed in 4% formalin, embedded in 0.75% agarose for ease of handling, dehydrated in a graded series of ethanol and xylenes, and embedded in paraffin. Transverse sections (to obtain full thickness cartilage slices with superficial and deep zones) were taken at 5 μm thickness. These sections were stained with 0.5% Safranin O, 0.02% Fast Green and Weigert's iron hematoxylin for GAG detection. Adjacent sections underwent antigen retrieval using 0.1% hyaluronidase, 0.1% pronase in PBS for 30 min at 37° C., then were immunostained for type II collagen using 1 μg/mL mouse IgG1 (clone II-II6B3) or normal mouse IgG1 as isotype control. Antibody detection was performed using a VectaStain Elite ABC kit with 3,3-diaminobenzidine staining. Stained sections were imaged using a Zeiss Axioplan2 equipped with an AxioCam HRc camera.

[4] = tested on: chondrocytes in cartilage explants; experiment: IL-1α treated cartilage explant culture OA model: chondrocyte metabolism (alamarBlue); format: cell-based; conditions: Day 16
Protocol: (§2) 3 mm diameter cartilage explants harvested from calf knee joints were equilibrated separately in serum free culture media containing 96.2% low-glucose DMEM, 1.0% HEPES, 1.0% NEAA, 1.0% PSA, 0.4% proline and 0.4% ascorbic acid for 48 h at 37° C., 5% CO2 for 2 days prior to treatment. Tissue explants for all treatment conditions were matched for depth and location to prevent any bias. To test the biological effectiveness of mAv-Dex, equilibrated cartilage explants were treated with or without IL-1α (2 ng/mL) for 16 days in combination with (i) a single dose of 100 nM free Dex, (ii) a continuous dose of 100 nM free Dex, (iii) a single dose of 10 μM free Dex (iv) a single dose of fast release mAv-Dex (10 μM Dex) or (v) a single dose of controlled release mAv-Dex (2:1:1) (10 μM Dex). To evaluate the effect of mAv carrier alone on cartilage health, a high one-time dose of 10 μM mAv, which is 10× higher than that used to deliver 10 μM Dex in condition (v) above, was also tested in the absence of IL-1α. Note that mAv here refers to 1:4 mAv configuration. […]
Chondrocyte viability was analyzed by staining cartilage explants with FDA (4.0 mg/mL) and PI (10.0 mg/mL) for live (green) and dead (red) cells, respectively. […] Cell metabolic activity was estimated by measuring fluorescence at 530 nm excitation and 590 nm emission wavelengths.

[5] = tested on: IL-1α treated cartilage explants; experiment: IL-1α treated cartilage explant culture OA model: GAG loss (DMMB assay); format: cell-based, bovine; conditions: 16-day culture
Excerpt: Tissue explants for all treatment conditions were matched for depth and location to prevent any bias. […] Note that mAv here refers to 1:4 mAv configuration. Media was changed every 2 days and IL-1α was replenished at each medium change. […] IL-1α concentration was chosen as it represents a moderately aggressive cytokine treatment. […] After 16 days of culture, cartilage explants were weighed and digested in proteinase K. The cumulative GAGs released to the media and residual GAGs in the digested explants were measured using the DMMB assay. Nitrite content was measured using the Griess assay as an indicator of nitric oxide (NO) release from tissues. Equal volumes of Griess reagent and culture media collected every two days were mixed and incubated at room temperature for 15 min, and absorbance at 540 nm was measured using a plate reader. Sodium nitrite was used as a standard.

[6] = tested on: IL-1α treated cartilage explants; experiment: IL-1α treated cartilage explant culture OA model: nitrite release (Griess assay); format: cell-based, bovine; conditions: continuous dose 100 nM, Day 8
Protocol: as §2, with “Dex).” for “Dex). To evaluate the effect of mAv carrier alone on cartilage health, a high one-time dose of 10 μM mAv, which is 10× higher than that used to deliver 10 μM Dex in condition (v) above, was also tested in the absence of IL-1α. Note that mAv here refers to 1:4 mAv configuration.”
After 16 days of culture, cartilage explants were weighed and digested in proteinase K. The cumulative GAGs released to the media and residual GAGs in the digested explants were measured using the DMMB assay. Nitrite content was measured using the Griess assay as an indicator of nitric oxide (NO) release from tissues. Equal volumes of Griess reagent and culture media collected every two days were mixed and incubated at room temperature for 15 min, and absorbance at 540 nm was measured using a plate reader. […]

[7] = tested on: chondrocytes in cartilage explants; experiment: IL-1α treated cartilage explant culture OA model: chondrocyte viability (FDA/PI); format: cell-based; conditions: Day 16
Protocol: as §1
Chondrocyte viability was analyzed by staining cartilage explants with FDA (4.0 mg/mL) and PI (10.0 mg/mL) for live (green) and dead (red) cells, respectively. Slices were washed with PBS and imaged at 4× magnification (Nikon Eclipse Ts2R). The live and dead images were overlaid using ImageJ. At the end of the culture, tissue explants were incubated with media containing 1× resazurin sodium salt (alamarBlue assay) for 3 h in dark at 37° C. and 5% CO2. Cell metabolic activity was estimated by measuring fluorescence at 530 nm excitation and 590 nm emission wavelengths.

[8] = multiple IA injections, 2.5 mg every 3 days or 0.5 mg/kg; cited from earlier work
[9] = IA 40 mg every 3 months for 2 years; cited from earlier work
[10] = one week following ACLT, read at 3 weeks, vs free Dex; cited from earlier work
[11] = Intra-cartilage diffusion kinetics (non-equilibrium one-dimensional diffusion, transport chamber); conditions: 3 μM upstream, 400-600 μm cartilage disk; Mean ± SD
Protocol: The interior walls of the transport chamber were equilibrated in 0.5% nonfat-dried bovine milk solution in PBS for 15 min to lessen non-specific binding of solutes to inner walls of the transport chamber. Subsequently, the compartments of chamber were rinsed with DI water. 3 μM solution of labeled Avidin or mAv was added to the upstream chamber. A 6 mm diameter cartilage disk of 400-600 μm thickness was placed between the upstream and downstream compartments. Concentration of fluorescently labeled solutes in the downstream chamber was measured over time by exciting the downstream solution using a 480 nm laser line and detecting the emission. Non-equilibrium diffusion curves were thereby obtained by plotting normalized downstream concentration (CD) to upstream concentration (Cu) over time. Effective Diffusivity (DEFF), which is the diffusivity of solutes in cartilage while binding interactions exist within the tissue was estimated as follows:
[formula] where L corresponds to cartilage thickness, and τLag is the time it takes to reach a steady state flux. τLag was estimated using the time-axis intercept of the linear slope of the normalized concentration versus time.

[12] = tested on: bovine cartilage explants; conditions: cited from earlier work
[13] = rabbit, in vivo; cited from earlier work
[14] = Equilibrium uptake in cartilage explants (uptake ratio Ru); conditions: 50% GAG depleted cartilage (mid-stage OA)
Protocol: Cartilage explants were harvested from the femoropatellar groove of 2-3-week-old bovine knees (Research 87, Boylston, MA) with a 3 mm diameter biopsy punch. The cylindrical plugs were then sliced to obtain the superficial 1 mm layer of cartilage, and frozen until use. […] Cartilage disks were equilibrated in 300 μL of 8.5 μM of labeled Avidin, 1:2 mAv or 1:4 mAv in presence of protease inhibitors for 24 h in a 96-well plate at 37° C. on gentle shaking to prevent formation of stagnant layers. To minimize evaporation, the empty wells in the plate were filled with DI water and the plate was wrapped in parafilm. At the end of the experiment, the surfaces of each disk were quickly blotted with Kimwipes and the wet weight was measured. The equilibrium bath fluorescence was measured using a plate reader (Synergy H1, Biotek). The final concentration was calculated based on a linear calibration correlating fluorescence to concentration of labeled Avidin. The moles of solutes absorbed into the cartilage were calculated using the difference between the initial and equilibrium concentration of the bath. The concentration of solutes inside was calculated by normalizing the number of moles inside cartilage to the wet weight of the tissue. The uptake ratio (Ru) was defined as the ratio of the concentration of solutes inside the tissue (Ctissue) to that of the solute in the equilibrium bath (Cbath). […]

chondrocytes = conditions: incubation with chondrocytes in culture; cited from earlier work

1:2 mAv: multi-arm Avidin containing two biotinylated 8-arm PEGs
Zeta potential (ζ) [1]: 20.3 ± 0.3 mV
Diameter (net size) [2]: ~7.6 nm

C[C@@H]1C[C@H]2[C@@H]3CCC4=CC(=O)C=C[C@]4(C)[C@@]3(F)[C@@H](O)C[C@]2(C)[C@@]1(O)C(=O)CO [Dex, dexamethasone]
Safranin-O GAG staining ([3]; continuous dose 100 nM): mostly rescued
Safranin-O GAG staining ([3]; single dose 100 nM): marginally affected
Safranin-O GAG staining ([3]; single dose 10 μM Dex): protected GAG content to a greater extent than at 100 nM
rescue of IL-1α reduced cell metabolism rates [4]: not rescued
suppression of IL-1α induced GAG loss ([5]; continuous dose 100 nM): effectively suppress IL-1α induced GAG loss
suppression of IL-1α induced GAG loss ([5]; single dose 100 nM): not effective
suppression of IL-1α induced GAG loss ([5]; single dose 10 μM Dex): significantly suppressed IL-1α induced GAG loss
lower nitrite levels compared to single dose of 100 nM Dex [6]: 3.5 ×
rescue of chondrocyte viability ([7]; continuous dose 100 nM): rescued effectively
rescue of chondrocyte viability ([7]; single dose 100 nM): not with a single dose
rescue of chondrocyte viability ([7]; single dose 10 μM Dex, listed as free Dex): not as effective
inflammation and cartilage protection [8]: significantly reduce inflammation and protect cartilage
toxicity of high multi-dose regimen [8]: systemic toxicity in vital organs

CC1(C)O[C@@H]2C[C@H]3[C@@H]4CCC5=CC(=O)C=C[C@]5(C)[C@@]4(F)[C@@H](O)C[C@]3(C)[C@]2(C(=O)CO)O1 [TCA, triamcinolone acetonide]
cartilage loss [9]: greater cartilage loss compared to saline

Av-Dex: Avidin covalently conjugated with 4 moles of Dexamethasone using its four biotin binding sites
efficacy of single low dose IA injection [10]: suppressed injury induced joint inflammation, synovitis, incidence of osteophyte formation and restored trabecular properties at 3 weeks significantly greater than free Dex

Avidin: cationic glycoprotein with four biotin binding sites
intra-cartilage effective diffusivity DEFF [11]: 8.4 ± 2.0 × 10^−8 cm^2/s
zeta potential ([1]; in DI water, 'should be around'): around 18.3±0.5 mV
Zeta potential (ζ) [1]: 18.3 ± 0.5 mV
Diameter (net size) [2]: ~7.0 nm
Avidin dose shown not to affect GAG loss, chondrocyte viability or biosynthesis rates [12]: less than 100 μM
intra-cartilage uptake ratio [13]: 180
presence in cartilage after IA administration [13]: present through the full thickness of cartilage two weeks following its IA administration
drop of uptake following 50% GAG depletion compared to healthy condition [14]: 13.2 ×

RRAAAARRAAAARRAAAARR [CPC+8]
uptake by chondrocytes (chondrocytes): not uptaken by the chondrocytes
